Measurements as given in PMC10838953.

Assays:
Experiment in all cases: biochemical
Conditions in all cases: read-out: %Ctrl @ 2000nM
[1] = biological target: ACVR1B (Homo sapiens, UniProt P36896)
[2] = biological target: BIKE (Homo sapiens, UniProt Q9NSY1)
[3] = biological target: BMPR1A (Homo sapiens, UniProt P36894)
[4] = biological target: BRAF (Homo sapiens, UniProt P15056)
[5] = biological target: CDC2L5 (Homo sapiens, UniProt Q14004)
[6] = biological target: CLK4 (Homo sapiens, UniProt Q9HAZ1)
[7] = biological target: CSNK1A1L (Homo sapiens, UniProt Q8N752)
[8] = biological target: EGFR(L747-S752del, P753S) (Homo sapiens, UniProt P00533, DEL747-752/P753S)
[9] = biological target: EGFR(L861Q) (Homo sapiens, UniProt P00533, L861Q)
[10] = biological target: EPHA4 (Homo sapiens, UniProt P54764)
[11] = biological target: EPHB4 (Homo sapiens, UniProt P54760)
[12] = biological target: ERK4 (Homo sapiens, UniProt P31152)
[13] = biological target: FLT3(D835V) (Homo sapiens, UniProt P36888, D835V)
[14] = biological target: FLT3(D835Y) (Homo sapiens, UniProt P36888, D835Y)
[15] = biological target: GAK (Homo sapiens, UniProt O14976)
[16] = biological target: IRAK1 (Homo sapiens, UniProt P51617)
[17] = biological target: JNK3 (Homo sapiens, UniProt P53779)
[18] = biological target: KIT-autoinhibited (Homo sapiens, UniProt P10721)
[19] = biological target: LIMK2 (Homo sapiens, UniProt P53671)
[20] = biological target: LRRK2(G2019S) (Homo sapiens, UniProt Q5S007, G2019S)
[21] = biological target: MAK (Homo sapiens, UniProt P20794)
[22] = biological target: MARK2 (Homo sapiens, UniProt Q7KZI7)
[23] = biological target: MUSK (Homo sapiens, UniProt O15146)
[24] = biological target: NEK2 (Homo sapiens, UniProt P51955)
[25] = biological target: NEK7 (Homo sapiens, UniProt Q8TDX7)
[26] = biological target: NEK9 (Homo sapiens, UniProt Q8TD19)
[27] = biological target: NIK (Homo sapiens, UniProt Q99558)
[28] = biological target: NLK (Homo sapiens, UniProt Q9UBE8)
[29] = biological target: p38-gamma (Homo sapiens, UniProt P53778)
[30] = biological target: PDGFRA (Homo sapiens, UniProt P16234)
[31] = biological target: PDPK1 (Homo sapiens, UniProt O15530)
[32] = biological target: PFCDPK1(P.falciparum) (Plasmodium falciparum, UniProt P62344)
[33] = biological target: PIK3CA(C420R) (Homo sapiens, UniProt P42336, C420R)
[34] = biological target: PIK3CA(Q546K) (Homo sapiens, UniProt P42336, Q546K)
[35] = biological target: PIP5K2B (Homo sapiens, UniProt P78356)
[36] = biological target: PRKCH (Homo sapiens, UniProt P24723)
[37] = biological target: ROCK1 (Homo sapiens, UniProt Q13464)
[38] = biological target: SIK (Homo sapiens, UniProt P57059)
[39] = biological target: TTK (Homo sapiens, UniProt P33981)
[40] = biological target: VEGFR2 (Homo sapiens, UniProt P35968)
[41] = biological target: YANK3 (Homo sapiens, UniProt Q86UX6)
[42] = biological target: YSK1 (Homo sapiens, UniProt O00506)
Sequence of YSK1 (O00506 whole entry): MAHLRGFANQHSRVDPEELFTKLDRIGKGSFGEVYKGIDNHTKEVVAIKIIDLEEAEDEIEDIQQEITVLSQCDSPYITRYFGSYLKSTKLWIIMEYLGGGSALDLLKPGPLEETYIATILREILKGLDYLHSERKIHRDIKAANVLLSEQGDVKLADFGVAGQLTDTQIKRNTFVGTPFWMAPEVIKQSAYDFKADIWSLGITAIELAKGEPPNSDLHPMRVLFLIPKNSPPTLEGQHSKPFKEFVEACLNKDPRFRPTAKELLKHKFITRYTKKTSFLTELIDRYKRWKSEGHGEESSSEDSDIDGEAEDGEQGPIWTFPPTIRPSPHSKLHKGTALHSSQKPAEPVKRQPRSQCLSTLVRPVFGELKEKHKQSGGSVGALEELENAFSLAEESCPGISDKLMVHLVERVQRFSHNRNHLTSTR

Sequence of PIP5K2B (P78356 whole entry): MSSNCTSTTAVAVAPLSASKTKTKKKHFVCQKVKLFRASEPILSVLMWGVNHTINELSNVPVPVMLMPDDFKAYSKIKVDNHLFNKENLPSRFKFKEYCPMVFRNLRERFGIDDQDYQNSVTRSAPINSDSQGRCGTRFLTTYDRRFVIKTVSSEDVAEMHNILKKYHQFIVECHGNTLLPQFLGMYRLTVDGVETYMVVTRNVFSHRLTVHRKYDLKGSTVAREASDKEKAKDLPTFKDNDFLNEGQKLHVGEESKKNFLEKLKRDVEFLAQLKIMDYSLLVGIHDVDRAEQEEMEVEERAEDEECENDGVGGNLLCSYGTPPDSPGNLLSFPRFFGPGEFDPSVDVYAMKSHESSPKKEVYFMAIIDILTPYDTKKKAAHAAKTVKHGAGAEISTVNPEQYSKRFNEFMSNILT
Sequence of EGFR(L747-S752del, P753S) (P00533 with tags, fused parts or gaps DEL747-752/P753S limits assumed): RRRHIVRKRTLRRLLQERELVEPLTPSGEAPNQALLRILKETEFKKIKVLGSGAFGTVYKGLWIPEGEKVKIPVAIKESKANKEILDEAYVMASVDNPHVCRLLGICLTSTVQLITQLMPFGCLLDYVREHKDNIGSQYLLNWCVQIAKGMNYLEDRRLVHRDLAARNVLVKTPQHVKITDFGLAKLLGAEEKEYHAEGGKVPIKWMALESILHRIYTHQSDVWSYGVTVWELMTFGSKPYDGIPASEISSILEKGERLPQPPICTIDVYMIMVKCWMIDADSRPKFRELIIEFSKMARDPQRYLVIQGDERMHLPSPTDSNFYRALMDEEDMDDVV
Sequence of PDPK1 (O15530 whole entry): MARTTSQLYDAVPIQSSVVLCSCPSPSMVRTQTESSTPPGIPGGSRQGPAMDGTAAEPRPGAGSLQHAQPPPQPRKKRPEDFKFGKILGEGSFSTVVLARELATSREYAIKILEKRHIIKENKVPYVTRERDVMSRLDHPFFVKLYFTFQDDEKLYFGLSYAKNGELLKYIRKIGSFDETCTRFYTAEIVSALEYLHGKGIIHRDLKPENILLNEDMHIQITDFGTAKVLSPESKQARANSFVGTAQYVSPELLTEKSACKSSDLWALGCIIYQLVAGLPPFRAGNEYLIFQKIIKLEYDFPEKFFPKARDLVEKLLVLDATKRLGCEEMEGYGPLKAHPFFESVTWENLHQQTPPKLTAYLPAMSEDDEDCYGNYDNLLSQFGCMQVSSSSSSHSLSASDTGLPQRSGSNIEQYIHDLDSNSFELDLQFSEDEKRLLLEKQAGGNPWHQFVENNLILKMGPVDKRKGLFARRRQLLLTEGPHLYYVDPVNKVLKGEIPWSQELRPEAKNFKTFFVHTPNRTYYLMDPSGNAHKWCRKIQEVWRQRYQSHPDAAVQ
Sequence of NEK7 (Q8TDX7 whole entry): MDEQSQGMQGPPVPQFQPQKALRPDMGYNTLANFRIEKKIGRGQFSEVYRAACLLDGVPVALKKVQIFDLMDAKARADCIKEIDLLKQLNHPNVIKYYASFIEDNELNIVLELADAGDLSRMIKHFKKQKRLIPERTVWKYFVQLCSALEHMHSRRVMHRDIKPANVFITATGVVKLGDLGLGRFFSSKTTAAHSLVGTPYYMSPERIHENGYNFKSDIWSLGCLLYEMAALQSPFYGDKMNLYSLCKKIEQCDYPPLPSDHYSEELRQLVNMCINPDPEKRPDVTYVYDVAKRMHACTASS
Sequence of YANK3 (Q86UX6 whole entry): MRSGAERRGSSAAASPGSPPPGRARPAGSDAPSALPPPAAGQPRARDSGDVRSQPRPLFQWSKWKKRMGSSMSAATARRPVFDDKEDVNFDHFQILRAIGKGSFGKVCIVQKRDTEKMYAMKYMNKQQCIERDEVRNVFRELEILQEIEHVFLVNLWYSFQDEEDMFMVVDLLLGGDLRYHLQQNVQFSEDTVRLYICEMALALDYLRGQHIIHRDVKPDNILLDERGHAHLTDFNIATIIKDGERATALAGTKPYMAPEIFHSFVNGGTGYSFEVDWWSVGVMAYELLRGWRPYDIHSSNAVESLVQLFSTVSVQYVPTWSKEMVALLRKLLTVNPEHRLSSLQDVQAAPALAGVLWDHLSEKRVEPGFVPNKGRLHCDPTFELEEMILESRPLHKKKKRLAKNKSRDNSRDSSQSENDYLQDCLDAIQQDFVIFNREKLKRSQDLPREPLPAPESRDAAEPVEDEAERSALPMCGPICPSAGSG
Sequence of BMPR1A (P36894 24-532): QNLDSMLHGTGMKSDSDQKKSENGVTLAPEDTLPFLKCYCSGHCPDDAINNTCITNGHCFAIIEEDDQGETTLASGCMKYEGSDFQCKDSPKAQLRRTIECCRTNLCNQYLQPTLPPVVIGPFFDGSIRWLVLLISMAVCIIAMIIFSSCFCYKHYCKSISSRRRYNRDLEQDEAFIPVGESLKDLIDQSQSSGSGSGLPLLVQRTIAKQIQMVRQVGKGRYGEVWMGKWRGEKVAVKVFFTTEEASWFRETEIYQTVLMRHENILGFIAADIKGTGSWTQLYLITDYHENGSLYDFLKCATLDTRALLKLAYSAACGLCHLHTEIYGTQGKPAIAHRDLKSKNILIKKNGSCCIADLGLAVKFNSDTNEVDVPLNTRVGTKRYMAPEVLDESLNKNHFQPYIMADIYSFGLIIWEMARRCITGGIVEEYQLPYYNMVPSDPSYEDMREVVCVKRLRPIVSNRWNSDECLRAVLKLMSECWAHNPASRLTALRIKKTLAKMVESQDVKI
Sequence of NLK (Q9UBE8 whole entry): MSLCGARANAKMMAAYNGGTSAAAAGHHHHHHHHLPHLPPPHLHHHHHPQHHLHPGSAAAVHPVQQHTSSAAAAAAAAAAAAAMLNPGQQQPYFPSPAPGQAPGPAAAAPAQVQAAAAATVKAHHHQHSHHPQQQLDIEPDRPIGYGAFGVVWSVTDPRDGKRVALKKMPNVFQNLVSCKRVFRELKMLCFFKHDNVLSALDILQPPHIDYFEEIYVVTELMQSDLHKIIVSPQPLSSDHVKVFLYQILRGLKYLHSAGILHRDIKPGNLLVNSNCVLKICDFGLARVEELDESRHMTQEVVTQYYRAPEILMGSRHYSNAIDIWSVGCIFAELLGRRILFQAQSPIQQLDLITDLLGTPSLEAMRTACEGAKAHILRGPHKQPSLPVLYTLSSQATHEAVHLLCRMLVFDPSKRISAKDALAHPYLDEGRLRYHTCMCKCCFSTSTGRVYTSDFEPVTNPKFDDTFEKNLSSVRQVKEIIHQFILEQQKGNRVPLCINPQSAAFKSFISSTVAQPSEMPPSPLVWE
Sequence of ERK4 (P31152 whole entry): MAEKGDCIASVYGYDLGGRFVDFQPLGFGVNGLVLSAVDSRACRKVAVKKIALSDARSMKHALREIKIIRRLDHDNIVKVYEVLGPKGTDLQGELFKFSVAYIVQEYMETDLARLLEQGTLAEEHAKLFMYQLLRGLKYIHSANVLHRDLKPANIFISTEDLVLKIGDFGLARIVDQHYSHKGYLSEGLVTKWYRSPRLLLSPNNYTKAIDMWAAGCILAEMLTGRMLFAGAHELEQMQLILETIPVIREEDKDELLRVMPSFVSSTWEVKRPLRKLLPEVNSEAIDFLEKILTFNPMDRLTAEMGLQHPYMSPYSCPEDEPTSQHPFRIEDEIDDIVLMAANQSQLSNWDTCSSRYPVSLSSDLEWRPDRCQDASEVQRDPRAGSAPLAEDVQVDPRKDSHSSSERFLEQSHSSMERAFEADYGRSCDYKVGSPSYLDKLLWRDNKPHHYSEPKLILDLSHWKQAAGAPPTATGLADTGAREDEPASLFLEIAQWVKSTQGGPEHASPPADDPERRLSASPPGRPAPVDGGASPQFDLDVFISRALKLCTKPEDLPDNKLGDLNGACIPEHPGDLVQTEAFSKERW
Sequence of PFCDPK1(P.falciparum) (P62344 whole entry): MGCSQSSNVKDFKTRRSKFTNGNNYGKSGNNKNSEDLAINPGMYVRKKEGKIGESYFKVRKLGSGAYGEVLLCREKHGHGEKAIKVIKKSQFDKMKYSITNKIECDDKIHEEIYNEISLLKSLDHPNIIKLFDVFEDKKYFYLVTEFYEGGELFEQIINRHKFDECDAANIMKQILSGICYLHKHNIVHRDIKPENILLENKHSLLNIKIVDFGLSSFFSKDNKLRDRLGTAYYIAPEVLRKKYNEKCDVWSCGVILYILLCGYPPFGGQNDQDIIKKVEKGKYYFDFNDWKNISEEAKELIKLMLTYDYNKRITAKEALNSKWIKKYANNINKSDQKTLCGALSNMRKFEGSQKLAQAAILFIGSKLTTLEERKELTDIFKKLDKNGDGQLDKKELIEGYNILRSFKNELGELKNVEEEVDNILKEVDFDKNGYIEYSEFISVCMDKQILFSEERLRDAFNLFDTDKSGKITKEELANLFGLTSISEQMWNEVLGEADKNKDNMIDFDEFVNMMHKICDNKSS

SMILES: CC(C)COC(=O)c1[nH]c2ccc(F)cc2c1-c1cn(CC2CCN(CCNS(=O)(=O)c3ccc(CC(C)C)cc3)CC2)nn1 [AB668, isobutyl 5-fluoro-3-(1-((1-(2-((4-isobutylphenyl)sulfonamido)ethyl)piperidin-4-yl)methyl)-1H-1,2,3-triazol-4-yl)-1H-indole-2-carboxylate]
- remaining activity at 2 µM [1]: 75%
- remaining activity at 2 µM [2]: 99%
- remaining activity at 2 µM [3]: 77%
- remaining activity at 2 µM [4]: 100%
- remaining activity at 2 µM [5]: 98%
- remaining activity at 2 µM [6]: 97%
- remaining activity at 2 µM [7]: 86%
- remaining activity at 2 µM [8]: 98%
- remaining activity at 2 µM [9]: 79%
- remaining activity at 2 µM [10]: 78%
- remaining activity at 2 µM [11]: 79%
- remaining activity at 2 µM [12]: 84%
- remaining activity at 2 µM [13]: 94%
- remaining activity at 2 µM [14]: 79%
- remaining activity at 2 µM [15]: 99%
- remaining activity at 2 µM [16]: 98%
- remaining activity at 2 µM [17]: 92%
- remaining activity at 2 µM [18]: 96%
- remaining activity at 2 µM [19]: 84%
- remaining activity at 2 µM [20]: 86%
- remaining activity at 2 µM [21]: 96%
- remaining activity at 2 µM [22]: 81%
- remaining activity at 2 µM [23]: 92%
- remaining activity at 2 µM [24]: 90%
- remaining activity at 2 µM [25]: 93%
- remaining activity at 2 µM [26]: 94%
- remaining activity at 2 µM [27]: 72%
- remaining activity at 2 µM [28]: 77%
- remaining activity at 2 µM [29]: 74%
- remaining activity at 2 µM [30]: 86%
- remaining activity at 2 µM [31]: 98%
- remaining activity at 2 µM [32]: 81%
- remaining activity at 2 µM [33]: 100%
- remaining activity at 2 µM [34]: 100%
- remaining activity at 2 µM [35]: 100%
- remaining activity at 2 µM [36]: 92%
- remaining activity at 2 µM [37]: 88%
- remaining activity at 2 µM [38]: 97%
- remaining activity at 2 µM [39]: 85%
- remaining activity at 2 µM [40]: 98%
- remaining activity at 2 µM [41]: 92%
- remaining activity at 2 µM [42]: 82%
